Calls of active or inactive are those of the source. No cut-off for these calls is given here.
Tests used:
Escherichia coli = assay: Antimicrobial activity against Escherichia coli XL1-blue at 1 mg/mL by disc diffusion assay; assay type: functional, organism-based
Rhizomucor miehei = assay: Antimicrobial activity against Mucor miehei at 1 mg/mL by disc diffusion assay; assay type: functional, organism-based
Streptomyces prasinus = assay: Antimicrobial activity against Streptomyces prasinus at 1 mg/mL by disc diffusion assay; assay type: functional; settings: read-out: DIZ

Row | SMILES | Activity (Escherichia coli) | Activity (Rhizomucor miehei) | zone of inhibition at 1000 µg/mL (Streptomyces prasinus)
1 | COC(=O)c1c(O[C@H]2C[C@H](O)C(=O)[C@H](C)O2)cc2cc3c(c(O)c2c1C)C(=O)[C@]1(O)C(=O)C=C(OC)[C@@H](O)[C@]1(O)C3=O | inactive | inactive | 12 mm
2 | COC(=O)c1c(O[C@@H]2O[C@@H](C)[C@H](OC)[C@@H](OC)[C@H]2OC)cc2cc3c(c(O)c2c1C)C(=O)[C@]1(OC)C(=O)C=C(OC)[C@@H](O)[C@]1(O)C3=O [ELLORAMYCIN] |  |  | 25 mm

From ChEMBL document CHEMBL1955819, “Ketoolivosyl-tetracenomycin C: a new ketosugar bearing tetracenomycin reveals new insight into the substrate flexibility of glycosyltransferase ElmGT” (2012)
